For 18 compounds, IC50 and Selectivity index results are on record in ChEMBL document CHEMBL1128055, “Selective cytotoxic cyclolignans” (Bioorg Med Chem Lett, 1995).

Assay [1] deals with A549. Briefly: Antineoplastic activity against A-549 (human lung carcinoma) cell line. It is filed as functional, cell-based.
For assay [2], the system named is HT-29. Briefly: Antineoplastic activity against HT-29 (human colon carcinoma) cell line. It is filed as functional, cell-based.
Assay [3] relates to P388. As to the kind of experiment: Antineoplastic activity against P-388 (murine leukemia) cell line. It is filed as functional, cell-based. The settings on record: Mus musculus.
For assay [4], the system named is CV-1. Briefly: Antineoplastic activity against CV-1 (monkey kidney fibroblast) cell line. Format: functional, cell-based, Cercopithecidae. As to conditions: Chlorocebus aethiops.
The subject of assay [5] is SK-MEL-28. Briefly: Antineoplastic activity against MEL-28 human melanoma carcinoma cell cultures. Format: functional, cell-based.
Assay [6] can be described thus: Selectivity index was evaluated by antineoplastic activity against HT-29 cells and compared with cytotoxicity against normal cells. Format: functional.

Usually IC50 stands for the point on the concentration scale where inhibition reaches its midpoint. Regarding `COC(=O)[C@H]1[C@H](c2cc(OC)c(OC)c(OC)c2)c2cc3c(cc2[C@H](O)[C@H]1CO)OCO3`, the IC50 in assay [1] was 220 nM; in assay [2], 450 nM; in assay [3] it was 220 nM; in assay [4] it was 450 nM.
With `COC(=O)[C@H]1[C@H](c2cc(OC)c(OC)c(OC)c2)c2cc3c(cc2C(=O)[C@H]1CO)OCO3`, the IC50 in assay [1], in assay [5], in assay [2], in assay [3] and in assay [4] was 5630 nM each time.
On to `CO/N=C/C1=Cc2cc3c(cc2[C@@H](c2cc(OC)c(OC)c(OC)c2)[C@@H]1C(=O)OC)OCO3`, for which the IC50 in assay [1], in assay [5], in assay [2], in assay [3] and in assay [4] was 220 nM each time.
For the compound `COc1cc([C@@H]2c3cc4c(cc3C=C(/C=N/Nc3ccccc3)[C@H]2CO)OCO4)cc(OC)c1OC`, the IC50 in assay [1] turned out to be 1020 nM; in assay [5] it was 510 nM; in assay [2], 2050 nM; in assay [3], 1020 nM; in assay [4] it was 1020 nM.
In the case of `COc1cc([C@@H]2c3cc4c(cc3C=C(C=O)[C@H]2CO)OCO4)cc(OC)c1OC`, the IC50 in assay [1] turned out to be 250 nM; in assay [5] it was 250 nM; in assay [2] it was 250 nM; in assay [3] it was 250 nM; in assay [4], 630 nM.
On to `CO/N=C/[C@@H]1Cc2cc3c(cc2[C@@H](c2cc(OC)c(OC)c(OC)c2)[C@@H]1C(=O)OC)OCO3`, for which the IC50 in assay [1] is 21900 nM; in assay [5], above 21900 nM; in assay [2] it was above 21900 nM; in assay [3], 10900 nM; in assay [4], above 21900 nM.
Take `COC(=O)[C@@H]1C(/C=N/NCC(F)(F)F)=Cc2cc3c(cc2[C@H]1c1cc(OC)c(OC)c(OC)c1)OCO3`: the IC50 in assay [1] turned out to be 190 nM; in assay [5], 480 nM; in assay [2], 48 nM; in assay [3] it was 480 nM; in assay [4], 480 nM. This compound also gave a Selectivity index in assay [6] of 10.
On to `COC(=O)[C@H]1[C@H](c2cc(OC)c(OC)c(OC)c2)c2cc3c(cc2[C@H](OC(C)=O)[C@H]1COC(C)=O)OCO3`, for which the IC50 in assay [1], in assay [2], in assay [3] and in assay [4] was 1100 nM in each case.
For `COc1cc([C@@H]2c3cc4c(cc3[C@H](O)[C@H]3COC(=O)[C@H]23)OCO4)cc(OC)c1OC` [PODOFILOX], the IC50 in assay [1] was 12 nM; in assay [2], 29 nM; in assay [3], 12 nM; in assay [4], 29 nM.
Take `COC(=O)[C@@H]1C(/C=N/N)=Cc2cc3c(cc2[C@H]1c1cc(OC)c(OC)c(OC)c1)OCO3`: the IC50 in assay [1] worked out at 570 nM; in assay [5] it was 1140 nM; in assay [2], 570 nM; in assay [3], 570 nM; in assay [4] it was 2270 nM.
On to `COC(=O)[C@@H]1C(/C=N/Nc2ccccc2)=Cc2cc3c(cc2[C@H]1c1cc(OC)c(OC)c(OC)c1)OCO3`, for which the IC50 in assay [1] stood at 970 nM; in assay [5], 4840 nM; in assay [2], 39 nM; in assay [3], 1940 nM; in assay [4], 1940 nM. The compound further gave a Selectivity index in assay [6] of 50.
Consider `COC(=O)[C@@H]1[C@H](CO)Cc2cc3c(cc2[C@H]1c1cc(OC)c(OC)c(OC)c1)OCO3`, for which the IC50 is 58 nM in assay [1]; 58 nM in assay [5]; 120 nM in assay [2]; 58 nM in assay [3]; 58 nM in assay [4].
In the case of `COC(=O)[C@H]1[C@H](c2cc(OC)c(OC)c(OC)c2)c2cc3c(cc2C[C@H]1C=O)OCO3`, the IC50 in assay [1], in assay [5], in assay [2], in assay [3] and in assay [4] was 2340 nM in each case.
On to `COC(=O)[C@@H]1C(C=O)=Cc2cc3c(cc2[C@H]1c1cc(OC)c(OC)c(OC)c1)OCO3` [PODOPHYLLIC ALDEHYDE], for which the IC50 in assay [1] turned out to be 120 nM; in assay [5] it was 230 nM; in assay [2], 12 nM; in assay [3] it was 230 nM; in assay [4], 230 nM. This compound also showed a Selectivity index in assay [6] of 20.
`COC(=O)[C@@H]1C(/C=N/O)=Cc2cc3c(cc2[C@H]1c1cc(OC)c(OC)c(OC)c1)OCO3`: the IC50 in assay [1], in assay [5], in assay [2], in assay [3] and in assay [4] was 2270 nM each time.
As for `COC(=O)[C@@H]1[C@H](COC(C)=O)Cc2cc3c(cc2[C@H]1c1cc(OC)c(OC)c(OC)c1)OCO3`, the IC50 in assay [1], in assay [5], in assay [2], in assay [3] and in assay [4] was 210 nM in each case.
In the case of `COc1cc([C@@H]2c3cc4c(cc3C(=O)[C@H]3COC(=O)[C@@H]23)OCO4)cc(OC)c1OC` [PICROPODOPHYLLONE], the IC50 came to 12000 nM in assay [1], 12000 nM in assay [2], 12000 nM in assay [3] and 48000 nM in assay [4].
With `COc1cc([C@@H]2c3cc4c(cc3C[C@H]3COC(=O)[C@@H]32)OCO4)cc(OC)c1OC` [DESOXYPODOPHYLLOTOXIN], the IC50 was below 6 nM in assay [1], 6 nM in assay [2], 10 nM in assay [3] and 6 nM in assay [4].
